Test results from patent US20230127944A1, “BROAD-SPECTRUM CARBAPENEMS” (priority 2019, published 2023).
Converted amounts (≈) assume the structure as drawn. Where two headings read alike, the source gives them in different places.

What was measured:
Format in all cases: cell-based
P. aeruginosa Paeβ-17 = experiment: broth microdilution MIC assay, P. aeruginosa Paeβ-17; conditions: Pseudomonas aeruginosa, read-out: MIC, P. aeruginosa Paeβ-17
Outline: (§1)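 Growth inhibition was measured by CLSI-based broth microdilution. Log-phase cultures in Mueller-Hinton broth with divalent cations were seeded at 5×10^5 CFU/mL into 2-fold serial compound dilutions and incubated 16-20 hours at 37° C before the MIC was scored by eye.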

[1] = system: P. aeruginosa 35151 (hyper-permeable strain); experiment: broth microdilution MIC assay, P. aeruginosa 35151; conditions: Pseudomonas aeruginosa, read-out: MIC, P. aeruginosa 35151
Outline: as §1

[2] = system: P. aeruginosa ATCC 27853 (wild-type/QC strain); experiment: broth microdilution MIC assay, P. aeruginosa 27853
Outline: as §1

[3] = system: E. coli ATCC 25922 (wild-type/QC strain); experiment: broth microdilution MIC assay, E. coli 25922
Outline: as §1

S. aureus USA 300 = experiment: broth microdilution MIC assay, S. aureus USA300; conditions: Staphylococcus aureus
Outline: as §1

S. aureus USA 600 = experiment: broth microdilution MIC assay, S. aureus USA600; conditions: Staphylococcus aureus
Outline: as §1

[4] = system: S. aureus ATCC 33591 (methicillin-resistant); experiment: broth microdilution MIC assay, S. aureus 33591; conditions: Staphylococcus aureus
Outline: as §1

[5] = system: P. aeruginosa ΔmexAB-OprM (an efflux pump knockout); experiment: broth microdilution MIC assay, P. aeruginosa ΔmexAB-OprM; conditions: Pseudomonas aeruginosa, read-out: MIC, P. aeruginosa ΔmexAB-OprM
Outline: as §1

[6] = Pseudomonas aeruginosa, ATCC27853; read-out: MIC, P. aeruginosa 27853
[7] = Escherichia coli, ATCC25922; read-out: MIC, E. coli 25922
[8] = S. aureus USA300 (MRSA), read-out: MIC, S. aureus USA300
[9] = S. aureus USA600 (MRSA), read-out: MIC, S. aureus USA600
[10] = ATCC33591, S. aureus 33591, methicillin-resistant, read-out: MIC, S. aureus 33591

Row | SMILES | MIC (P. aeruginosa Paeβ-17) | MIC [1] | MIC [2, 6] | MIC [3, 7] | MIC (S. aureus USA 300; [8]) | MIC (S. aureus USA 600; [9]) | MIC [4, 10] | MIC [5] | MIC ([2]; Pseudomonas aeruginosa, ATCC27853, read-out: MIC, P. aeruginosa 27853) | MIC ([3]; Escherichia coli, ATCC25922, read-out: MIC, E. coli 25922) | MIC (S. aureus USA 300; MRSA / USA300, read-out: MIC, S. aureus USA300) | MIC (S. aureus USA 600; MRSA / USA600, read-out: MIC, S. aureus USA600) | MIC ([4]; ATCC33591, read-out: MIC, S. aureus 33591)
1 | C[C@@H](O)[C@H]1C(=O)N2C(C(=O)O)=C(S[C@@H]3CC[C@H](NC4CCNCC4)C3)[C@H](C)[C@H]12 [Example 50, (4R,5S,6S)-6-((R)-1-hydroxyethyl)-4-methyl-7-oxo-3-(((1R,3S)-3-(piperidin-4-ylamino)cyclopentyl)thio)-1-azabicyclo[3.2.0]hept-2-ene-2-carboxylic acid] | 8 to 32 µg/mL (≈ 19.5 to 78.1 µM) | < 1 µg/mL | 8 to 32 µg/mL (≈ 19.5 to 78.1 µM) | < 1 µg/mL | 1 to 4 µg/mL (≈ 2.44 to 9.77 µM) | 1 to 4 µg/mL (≈ 2.44 to 9.77 µM) | 1 to 4 µg/mL (≈ 2.44 to 9.77 µM) | 1 to 4 µg/mL (≈ 2.44 to 9.77 µM) |  |  |  |  | 
2 | C[C@@H](O)[C@H]1C(=O)N2C(C(=O)O)=C(S[C@H]3C[C@@H](N[C@H]4CC[C@@H](NC(=N)N)CC4)C3)[C@H](C)[C@H]12 [Example 51, (4R,5S,6S)-3-(((1S,3S)-3-(((1S,4R)-4-guanidinocyclohexyl)amino)cyclobutyl)thio)-6-((R)-1-hydroxyethyl)-4-methyl-7-oxo-1-azabicyclo[3.2.0]hept-2-ene-2-carboxylic acid] | 8 to 32 µg/mL (≈ 17.7 to 70.9 µM) | < 1 µg/mL | 1 to 4 µg/mL (≈ 2.21 to 8.86 µM) | < 1 µg/mL | < 1 µg/mL | 1 to 4 µg/mL (≈ 2.21 to 8.86 µM) | 1 to 4 µg/mL (≈ 2.21 to 8.86 µM) | 1 to 4 µg/mL (≈ 2.21 to 8.86 µM) |  |  |  |  | 
3 | C[C@@H](O)[C@H]1C(=O)N2C(C(=O)O)=C(S[C@H]3C[C@@H](N[C@H]4CC[C@H](NC(=N)N)CC4)C3)[C@H](C)[C@H]12 [Example 52, (4R,5S,6S)-3-(((1S,3S)-3-(((1R,4S)-4-guanidinocyclohexyl)amino)cyclobutyl)thio)-6-((R)-1-hydroxyethyl)-4-methyl-7-oxo-1-azabicyclo[3.2.0]hept-2-ene-2-carboxylic acid] | 8 to 32 µg/mL (≈ 17.7 to 70.9 µM) | < 1 µg/mL | 1 to 4 µg/mL (≈ 2.21 to 8.86 µM) | < 1 µg/mL | 1 to 4 µg/mL (≈ 2.21 to 8.86 µM) | < 1 µg/mL | 1 to 4 µg/mL (≈ 2.21 to 8.86 µM) | 1 to 4 µg/mL (≈ 2.21 to 8.86 µM) |  |  |  |  | 
4 | C[C@@H](O)[C@H]1C(=O)N2C(C(=O)O)=C(S[C@@H]3CC[C@@H](NC4CCNCC4)C3)[C@H](C)[C@H]12 [Example 53, (4R,5S,6S)-6-((R)-1-hydroxyethyl)-4-methyl-7-oxo-3-(((1R,3R)-3-(piperidin-4-ylamino)cyclopentyl)thio)-1-azabicyclo[3.2.0]hept-2-ene-2-carboxylic acid] | 8 to 32 µg/mL (≈ 19.5 to 78.1 µM) | < 1 µg/mL | 8 to 32 µg/mL (≈ 19.5 to 78.1 µM) | < 1 µg/mL | 1 to 4 µg/mL (≈ 2.44 to 9.77 µM) | 1 to 4 µg/mL (≈ 2.44 to 9.77 µM) | 8 to 32 µg/mL (≈ 19.5 to 78.1 µM) | 1 to 4 µg/mL (≈ 2.44 to 9.77 µM) |  |  |  |  | 
5 | C[C@@H](O)[C@H]1C(=O)N2C(C(=O)O)=C(S[C@H]3C[C@@H](N4CCC(N)CC4)C3)[C@H](C)[C@H]12 [Example 54] | 8 to 32 µg/mL (≈ 20.2 to 80.9 µM) | < 1 µg/mL |  |  |  |  |  | 1 to 4 µg/mL (≈ 2.53 to 10.1 µM) | 8 to 32 µg/mL (≈ 20.2 to 80.9 µM) | < 1 µg/mL | 8 to 32 µg/mL (≈ 20.2 to 80.9 µM) | 1 to 4 µg/mL (≈ 2.53 to 10.1 µM) | 8 to 32 µg/mL (≈ 20.2 to 80.9 µM)
6 | C[C@@H](O)[C@H]1C(=O)N2C(C(=O)O)=C(S[C@@H]3CC[C@@H](NC4CCN(C(=N)N)CC4)C3)[C@H](C)[C@H]12 [Example 55, (4R,5S,6S)-3-(((1R,3R)-3-((1-carbamimidoylpiperidin-4-yl)amino)cyclopentyl)thio)-6-((R)-1-hydroxyethyl)-4-methyl-7-oxo-1-azabicyclo[3.2.0]hept-2-ene-2-carboxylic acid] | 8 to 32 µg/mL (≈ 17.7 to 70.9 µM) | < 1 µg/mL | 8 to 32 µg/mL (≈ 17.7 to 70.9 µM) | < 1 µg/mL | 1 to 4 µg/mL (≈ 2.21 to 8.86 µM) | 1 to 4 µg/mL (≈ 2.21 to 8.86 µM) | 1 to 4 µg/mL (≈ 2.21 to 8.86 µM) | 1 to 4 µg/mL (≈ 2.21 to 8.86 µM) |  |  |  |  | 
7 | C[C@@H](O)[C@H]1C(=O)N2C(C(=O)O)=C(S[C@@H]3CCN(C[C@H]4CC[C@H](N)CC4)C3)[C@H](C)[C@H]12 [Example 56, (4R,5S,6S)-3-(((R)-1-(((1R,4R)-4-aminocyclohexyl)methyl)pyrrolidin-3-yl)thio)-6-((R)-1-hydroxyethyl)-4-methyl-7-oxo-1-azabicyclo[3.2.0]hept-2-ene-2-carboxylic acid] | 8 to 32 µg/mL (≈ 18.9 to 75.5 µM) | < 1 µg/mL | 1 to 4 µg/mL (≈ 2.36 to 9.44 µM) | < 1 µg/mL | 1 to 4 µg/mL (≈ 2.36 to 9.44 µM) | 1 to 4 µg/mL (≈ 2.36 to 9.44 µM) | 1 to 4 µg/mL (≈ 2.36 to 9.44 µM) | 1 to 4 µg/mL (≈ 2.36 to 9.44 µM) |  |  |  |  | 
8 | C[C@@H](O)[C@H]1C(=O)N2C(C(=O)O)=C(S[C@@H]3CCN([C@H]4CC[C@@H](CN)CC4)C3)[C@H](C)[C@H]12 [Example 57, (4R,5S,6S)-3-(((R)-1-((1S,4S)-4-(aminomethyl)cyclohexyl)pyrrolidin-3-yl)thio)-6-((R)-1-hydroxyethyl)-4-methyl-7-oxo-1-azabicyclo[3.2.0]hept-2-ene-2-carboxylic acid] | 8 to 32 µg/mL (≈ 18.9 to 75.5 µM) | < 1 µg/mL | 1 to 4 µg/mL (≈ 2.36 to 9.44 µM) | < 1 µg/mL | 1 to 4 µg/mL (≈ 2.36 to 9.44 µM) | 1 to 4 µg/mL (≈ 2.36 to 9.44 µM) | 1 to 4 µg/mL (≈ 2.36 to 9.44 µM) | 1 to 4 µg/mL (≈ 2.36 to 9.44 µM) |  |  |  |  | 
9 | C[C@@H](O)[C@H]1C(=O)N2C(C(=O)O)=C(S[C@@H]3CCN([C@H]4CC[C@H](CN)CC4)C3)[C@H](C)[C@H]12 [Example 58, (4R,5S,6S)-3-(((R)-1-((1R,4R)-4-(aminomethyl)cyclohexyl)pyrrolidin-3-yl)thio)-6-((R)-1-hydroxyethyl)-4-methyl-7-oxo-1-azabicyclo[3.2.0]hept-2-ene-2-carboxylic acid] | 8 to 32 µg/mL (≈ 18.9 to 75.5 µM) | < 1 µg/mL | 1 to 4 µg/mL (≈ 2.36 to 9.44 µM) | < 1 µg/mL | 1 to 4 µg/mL (≈ 2.36 to 9.44 µM) | 1 to 4 µg/mL (≈ 2.36 to 9.44 µM) | 1 to 4 µg/mL (≈ 2.36 to 9.44 µM) | 1 to 4 µg/mL (≈ 2.36 to 9.44 µM) |  |  |  |  | 
10 | C[C@@H](O)[C@H]1C(=O)N2C(C(=O)O)=C(S[C@H]3C[C@H](N[C@H]4CC[C@H](N)CC4)C3)[C@H](C)[C@H]12 [Example 59, (4R,5S,6S)-3-(((1R,3R)-3-(((1R,4R)-4-aminocyclohexyl)amino)cyclobutyl)thio)-6-((R)-1-hydroxyethyl)-4-methyl-7-oxo-1-azabicyclo[3.2.0]hept-2-ene-2-carboxylic acid] | 8 to 32 µg/mL (≈ 19.5 to 78.1 µM) | < 1 µg/mL | 8 to 32 µg/mL (≈ 19.5 to 78.1 µM) | < 1 µg/mL | 1 to 4 µg/mL (≈ 2.44 to 9.77 µM) | 8 to 32 µg/mL (≈ 19.5 to 78.1 µM) | 1 to 4 µg/mL (≈ 2.44 to 9.77 µM) | 1 to 4 µg/mL (≈ 2.44 to 9.77 µM) |  |  |  |  | 
11 | C[C@@H](O)[C@H]1C(=O)N2C(C(=O)O)=C(S[C@H]3C[C@H](N[C@H]4CC[C@@H](N)CC4)C3)[C@H](C)[C@H]12 [Example 60, (4R,5S,6S)-3-(((1R,3R)-3-(((1S,4S)-4-aminocyclohexyl)amino)cyclobutyl)thio)-6-((R)-1-hydroxyethyl)-4-methyl-7-oxo-1-azabicyclo[3.2.0]hept-2-ene-2-carboxylic acid] | 8 to 32 µg/mL (≈ 19.5 to 78.1 µM) | < 1 µg/mL | 8 to 32 µg/mL (≈ 19.5 to 78.1 µM) | < 1 µg/mL | 1 to 4 µg/mL (≈ 2.44 to 9.77 µM) | 1 to 4 µg/mL (≈ 2.44 to 9.77 µM) | 8 to 32 µg/mL (≈ 19.5 to 78.1 µM) | 1 to 4 µg/mL (≈ 2.44 to 9.77 µM) |  |  |  |  | 
12 | C[C@@H](O)[C@H]1C(=O)N2C(C(=O)O)=C(S[C@H]3C[C@@H](N[C@H]4CC[C@H](N)CC4)C3)[C@H](C)[C@H]12 [Example 61, (4R,5S,6S)-3-(((1S,3S)-3-(((1R,4S)-4-aminocyclohexyl)amino)cyclobutyl)thio)-6-((R)-1-hydroxyethyl)-4-methyl-7-oxo-1-azabicyclo[3.2.0]hept-2-ene-2-carboxylic acid] | 8 to 32 µg/mL (≈ 19.5 to 78.1 µM) | < 1 µg/mL | 1 to 4 µg/mL (≈ 2.44 to 9.77 µM) | < 1 µg/mL | 1 to 4 µg/mL (≈ 2.44 to 9.77 µM) | 1 to 4 µg/mL (≈ 2.44 to 9.77 µM) | 1 to 4 µg/mL (≈ 2.44 to 9.77 µM) | 1 to 4 µg/mL (≈ 2.44 to 9.77 µM) |  |  |  |  | 
